US10654824B2, “2-azabicyclo[3.1.0]hexan-3-one derivatives and methods of use” (Genentech, Inc., priority 2016, dated 2020)
pIC50, pKi: −log10 of the molar value. Entries after “also recorded” stand apart in the source; their conditions may differ.

How the values were obtained:
NIK = molecular target: T1, NIK (Homo sapiens, UniProt Q99558); test: NIK enzyme inhibition assay (Transcreener ADP, fluorescence polarization); type: biochemical; conditions: for NIK enzyme inhibition, rank among the 4 stereoisomers: in words, four separated stereoisomers of Example 1
T1 construct: made in house; host or cells: baculovirus-infected insect cells
T1 sequence (Q99558 whole entry): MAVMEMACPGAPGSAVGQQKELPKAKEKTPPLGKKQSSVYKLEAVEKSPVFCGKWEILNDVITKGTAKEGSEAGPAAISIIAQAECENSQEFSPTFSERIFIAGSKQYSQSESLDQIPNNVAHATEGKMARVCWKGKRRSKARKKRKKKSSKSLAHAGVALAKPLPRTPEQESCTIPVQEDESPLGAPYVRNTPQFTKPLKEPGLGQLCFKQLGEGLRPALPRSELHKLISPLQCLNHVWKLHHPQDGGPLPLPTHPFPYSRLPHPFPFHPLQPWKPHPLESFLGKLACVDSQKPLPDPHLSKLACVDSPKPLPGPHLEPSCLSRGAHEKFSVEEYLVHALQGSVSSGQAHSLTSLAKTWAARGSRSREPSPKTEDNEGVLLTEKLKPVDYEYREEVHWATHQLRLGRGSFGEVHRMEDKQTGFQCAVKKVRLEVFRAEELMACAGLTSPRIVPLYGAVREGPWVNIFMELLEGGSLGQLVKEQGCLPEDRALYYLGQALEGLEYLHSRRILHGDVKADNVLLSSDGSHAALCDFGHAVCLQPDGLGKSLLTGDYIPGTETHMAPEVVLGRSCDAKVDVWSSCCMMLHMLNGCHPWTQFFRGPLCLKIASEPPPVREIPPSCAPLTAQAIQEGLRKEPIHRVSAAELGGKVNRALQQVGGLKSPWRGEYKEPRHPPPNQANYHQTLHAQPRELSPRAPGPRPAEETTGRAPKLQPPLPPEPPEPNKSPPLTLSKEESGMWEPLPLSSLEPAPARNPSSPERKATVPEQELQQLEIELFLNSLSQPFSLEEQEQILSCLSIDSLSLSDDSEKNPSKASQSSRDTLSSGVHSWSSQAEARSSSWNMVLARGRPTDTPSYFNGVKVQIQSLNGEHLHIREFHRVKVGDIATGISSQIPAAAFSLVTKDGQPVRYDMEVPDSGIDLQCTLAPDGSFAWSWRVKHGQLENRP
Method: The ability of the nuclear factor-kappa B (NF-kB)-inducing kinase (NIK) to catalyze the hydrolysis of adenosine-5′-triphosphate (ATP) was monitored using the Transcreener ADP (adenosine-5′-diphosphate) assay (BellBrook Labs). Purified NIK (0.5 nM) derived from a baculovirus-infected insect cell expression system was incubated with test compounds for 1-3.5 hours in 50 mM 2-[4-(2-hydroxyethyDpiperazin-1-yl]ethanesulfonic acid buffer (pH 7.2) containing 10 mM MgCl2, 2 mM dithiothreitol, 10 μM ATP, 0.01% Triton X-100, 0.1% gamma-globulins from bovine blood, 1% dimethylsulfoxide (DMSO), 7 μg/mL ADP antibody and 5 nM ADP-MR121 633 tracer. Reactions were quenched by the addition of 20 mM 2,2′,2″, 2″′-(ethane-1,2-diyldinitrilo)tetraacetic acid and 0.01% Brij 35. The tracer bound to the antibody was displaced by the ADP generated during the NIK reaction, which causes a decrease in fluorescence polarization that was measured by laser excitation at 633 nm with a Fluorescence Correlation Spectroscopy Plus reader (Evotec AG). Equilibrium dissociation constant (Ki) values for NIK inhibitors are calculated from plots of activity vs. inhibitor concentration using Morrison's quadratic equation that accounts for the potential of tight binding, and by also applying the conversion factor that accounted for competitive inhibition and the concentration of substrate used in the assay relative to its Michaelis constant (Km).

[1] = Liver microsome stability; type: in vitro ADME, human
Method: General. Metabolic stability assays in liver microsomes are conducted with pooled female CD-1 mouse, male Sprague-Dawley rat, male beagle dog, male cynomolgus monkey, and mixed male and female human liver microsomal incubations. The general assay conditions are as follows. Incubation mixtures consisted of liver microsomes (0.5 mg of microsomal protein/ml) and the test compound (1.0 μM) with or without NADPH (1.0 mM) in the potassium phosphate buffer (100 mM; pH 7.4) with a final incubation volume of 0.25 ml. Reactions are initiated by the addition of NADPH or buffer and shaken in a water bath open to the air at 37° C. At times 0, 20, 40, and 60 min, aliquots (50 μl) are removed and added to termination mixtures (100 μl) containing acetonitrile and an internal standard. The samples are then centrifuged for 10 min at 2000 g. The supernatant (90 μl) is removed, combined with 180 μl of water, and analyzed by LC-MS/MS.
Metabolic stability of the test compounds were evaluated in human liver microsomes following known protocols described in Halladay, et al. Drug Metabol. Lett. 2007, 1:67-72.

[2] = test system: REL-A (p65) nuclear translocation, classical NF-kB signaling, HUVEC; test: REL-A HUVEC nuclear translocation assay; type: cell-based; conditions: Homo sapiens, TNF-α 2 ng/mL stimulation
Method: (§1) (2) A second set of cell assays used primary human umbilical vein cells (HUVEC) sourced from Lonza to define the selectivity of NIK inhibitors toward inhibition of classical vs. non-classical NF-kB signaling using high content cellular imaging. For the p52 (non-classical NF-kB signaling) nuclear translocation assay, HUVEC were treated with different concentrations of compounds (0.2% DMSO final) in EBM-2 medium (LONZA) containing 2% fetal bovine serum and then stimulated with 300 ng/mL of an anti-lymphotoxin beta receptor antibody (R&D Systems) for 4.5 hours. In the REL-A nuclear translocation assay, HUVEC were incubated with compounds (0.2% DMSO final) for 4 hours 50 minutes in EBM-2 medium containing 2% fetal bovine serum before stimulating them with 2 ng/mL tumor necrosis factor (TNF)-α (R&D Systems) for 10 minutes. Cells were fixed with 4% paraformaldehyde, permeabilized by adding 0.1% Triton X-100 in phosphate buffered saline, and then were incubated with either 2 μg/mL anti-p52 antibody (Millipore) or 400 ng/mL anti-REL-A (p65) antibody (Santa Cruz Biotechnology). […] Imaging was carried out using an Opera reader (Perkin Elmer) and data were analyzed with the aid of Acapella software (Perkin Elmer). The p52 or REL-A translocation into the nucleus was quantified by the ratio of the nuclear to cytoplasmic signal intensity.

Hepatocyte stability = type: in vitro ADME, human
Method: General. Metabolic stability assays in hepatocytes are conducted using cryopreserved pooled female CD-1 mouse, male Sprague-Dawley rat, male beagle dog, male cynomolgus monkey, and mixed male and female human hepatocytes (CellzDirect). Vials of hepatocytes are thawed rapidly in a water bath set at 37° C. and then are diluted with Dulbecco's modified Eagle's medium (DMEM), pH 7.4. Cells are isolated by centrifugation, pooled, and resuspended in DMEM at 1.0 million viable cells/ml. Membrane integrity of the cells is assessed by trypan blue exclusion. The test compound is dissolved in dimethyl sulfoxide at a final concentration of […]. This test compound stock is diluted further to 2 μM in DMEM (125 μl) before the addition of an equal volume of the 10^6 cells/ml cell suspension. The test compound (final incubation concentration of 1.0 μM with 0.1% dimethyl sulfoxide) and cells (final concentration of 0.5×10^6 cells/ml) are incubated at 37° C. in a 95% air/5% CO2 atmosphere for 3 h. Aliquots (50 μl) are removed at 0, 1, 2, and 3 hours and added to termination mixtures (100 μl) containing acetonitrile and an internal standard. […] The supernatant (90 μl) is removed, combined with 180 μof water, and analyzed by LC-MS/MS.
Metabolic stability of the test compounds were evaluated also in human hepatocytes, following protocols described in Hallifax, et al. Drug Metabol. […]

[3] = test system: p52 nuclear translocation, non-classical NF-kB signaling, HUVEC; test: p52 HUVEC nuclear translocation assay; type: cell-based; conditions: Homo sapiens, anti-lymphotoxin beta receptor antibody 300 ng/mL
Method: as §1

CN1C(=O)[C@@](O)(C#Cc2cccc(-c3cccc(C(N)=O)n3)c2)[C@H]2C[C@H]21 (single isomer, unassigned)
NIK enzyme inhibition, rank among the 4 stereoisomers (NIK): third most potent NIK enzyme inhibitor among the 4 stereoisomers

CN1C(=O)[C@](O)(C#Cc2cccc(-c3cccc(C(N)=O)n3)c2)[C@@H]2C[C@@H]21 (single isomer, unassigned)
NIK enzyme inhibition, rank among the 4 stereoisomers (NIK): second most potent NIK enzyme inhibitor among the 4 stereoisomers

CN1C(=O)[C@](O)(C#Cc2cccc(-c3cccc(C(N)=O)n3)c2)[C@H]2C[C@H]21 (single isomer, unassigned) [Compound 1]
NIK enzyme inhibition, rank among the 4 stereoisomers (NIK): most potent NIK enzyme inhibitor among the 4 stereoisomers | pKi (NIK; purified NIK 0.5 nM, 10 μM ATP, read-out: NIK ADP-FP Ki): 9.40 | HLM CL (human liver microsome clearance) ([1]; human liver microsomes): 1.2 mL/min/kg | stability in human liver microsomes compared with the respective pyrrolidinone comparator compound ([1]; in words, versus comparators C-1, C-3, C-4, C-5, C-6): lower clearance; also recorded: better stability | pIC50 [2]: < 5.30 | Hep CL (human hepatocyte clearance) (Hepatocyte stability; human hepatocytes): 4.1 mL/min/kg | stability in the human hepatocyte assay compared with the corresponding comparator compound (Hepatocyte stability; in words, versus comparators C-1, C-3, C-5): better stability | pIC50 [3]: 7.03

CN1C(=O)[C@@](O)(C#Cc2cccc(-c3cccc(C(N)=O)n3)c2)[C@@H]2C[C@@H]21 (single isomer, unassigned)
NIK enzyme inhibition, rank among the 4 stereoisomers (NIK): no measurable inhibition
